Experimental data taken from patent US20150315241A1, “Antibiotic Peptides” (priority 2007, published 2015).
≈ marks a conversion by molar mass, not a printed value. Where two headings read alike, the source gives them in different places. Where a SMILES comes first, the peptide text is derived from it. Where no end group is shown, it is not given here. [ ]: non-standard residue; d: D form. The star is where a group is joined. Orn(α-tetramethylguanidino) = CN(C)C(=N[C@@H](CCCN)C(=O)*)N(C)C; Hyp = O=C(O)[C@@H]1C[C@@H](O)CN1; Orn = NCCC[C@H](N)C(=O)O

How the values were obtained:
[1] = cited from earlier work
B. subtilis 347 = assay type: cell-based, Bactillus subtillis
In short: (§1)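 Bacteria grown overnight in NB at 37° C. were adjusted to 5×10^6 CFU/mL in 1% TSB and mixed 1:1 with a two-fold peptide series (final 125 μg/mL–60 ng/mL). After 20 hrs at 37° C., A595 was read; triplicates.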

E. coli BL21 AI = tested on: E. coli BL21 AI
Description: The induction of resistance strains was determined according to the macro dilution method under NCCLS-conditions (National Committee for Clinical Laboratory Standards—now Clinical and Laboratory Standards Institute Wayne, Pa., USA, NCCLS-Guideline, M7-A5, Vol. 20, Nr. 2; 2000).
Firstly, minimal inhibition concentrations (MIC) were determined for the peptides to be examined as described in example 3.2. To determine induction of resistance continued dilutions of the peptide with concentrations ranging from 3 fold to 4 fold above to below the MIC were chosen. The test was performed in sterile 96-well microtiter plates with round bottoms (Polystyrene, U-bottom, Greiner Bio-One GmbH, Germany) and 200 μL final volume per well. The freeze-dried peptide or peptide derivatives were dissolved in water and diluted in respect to the MIC in 1% TSB (tryptic soy broth) to obtain a volume of 100 μL. […] The dilutions within the series were twofold.
The bacteria, E. coli BL21 AI, were grown overnight at 37° C. in nutrient broth (NB, Carl Roth GmbH+Co. KG, Karlsruhe, Germany) and diluted to 5×10^6 colony forming units (CFU)/mL in 1% TSB. To start the assay 100 μL of the bacteria dilution was added per well of the microtiter plate loaded with peptide. After incubating the plates for 24 h at 37° C., the absorption was determined at 595 nm using a TECAN microtiter plate reader (Tecan, Germany).
MIC values were calculated as described in example 3.2. The test was repeated using new dilution series with peptide concentrations adapted to the new determined MIC values and using the bacteria culture that grew despite the presence of the inhibitory peptide. This bacteria culture (1st passage) was diluted to 5×10^6 CFU/mL in 1% TSB. […] The test was repeated again with using new dilution series with peptide concentrations adapted to the new determined MIC values and using the bacteria culture that grew despite the presence of the inhibitory peptide (2nd passage). The same procedure was applied for about 8 further passages.
As a control a untreated E. coli BL21 AI culture was chosen and passaged without inhibitory peptides. All peptides and peptide derivatives were measured in triplicates. The number of passages was chosen dependent on the rapidity of induction of resistance and commonly was 10 passages over 10 continuous days.

E. coli 1103 = assay type: cell-based, Escherichia coli
In short: as §1

S. typhi S5 = assay type: cell-based, Salmonella typhi; details: S5, 20 h
In short: (§2)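 Broth microdilution with two-fold peptide series, final 125 μg/mL down to 60 ng/mL, against overnight cultures adjusted to 5×10^6 CFU/mL in 1% TSB. Incubated 20 h at 37° C. Growth read by absorbance at 595 nm, triplicates.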

E. coli D31 = assay type: cell-based, Escherichia coli; details: D31, 20 h
In short: as §2

[2] = tested on: S. enterica subsp. Enterica serovar. typhi G10215 ATCC 700408; assay type: cell-based, Salmonella enterica; details: ATCC 700408, 20 h
In short: as §2

K. pneumonia 681 = assay type: cell-based, Klebsiella pneumoniae
In short: as §1

M. luteus ATCC 10240 = assay type: cell-based, Micrococcus luteus
In short: as §1

E. coli 10233 = assay type: cell-based, Escherichia coli
In short: as §1

in vitro = in vitro ADME, mouse; details: 25% aqueous mouse serum, 37° C.; read-out: Half-life time
In short: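 Peptide or peptidomimetic (0.5 mg/mL aqueous stock) incubated in 25% pooled mouse serum at 37 °C, sampled at 0–6 h, in duplicate. Proteins precipitated with 15% TCA; supernatants neutralized and analyzed by RP-HPLC with 0.1% TFA. Degradation products identified by MALDI-TOF/TOF-MS.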

[3] = In vivo distribution of fluorescent-labelled peptide (imaging); parameters: species or system female Balb/c mice; details: mice, 40 μg i.p., 60-65 min
Description: The in vivo distribution was measured in mice using fluorescent-labelled peptides derivatives.
Near-infrared absorbing fluorescent dye Dy675 (Dyomics GmbH, Jena, Germany) was activated with DIC and coupled to the N-terminus of the peptide derivatives after completion of the solid phase peptide synthesis (see example 1). Afterwards the peptides were cleaved with TFA and purified by RP-HPLC (see example 1).
Forty μg of the labelled peptide derivatives were injected subcutaneously (sc) or intra-peritional (ip) into shaved and isoflurane anesthetized female Balb/c mice. The animals were placed into the fluorescence microscope chamber under continuous isoflurane exposure. Fluorescence exposure pictures were taken with an IVIS microscope set to 695 nm emission wavelength at every minute in the first 10 min after peptide addition and every 5 min afterwards until 65 min.

E. coli 45849 = assay: Growth inhibition assay (MIC); assay type: cell-based, Escherichia coli; details: 45849, 20 h
In short: as §2

Mycobacterium vaccae = assay type: cell-based; details: 1% TSB, 37° C., 20 hrs
Description: The minimal inhibition concentrations (MIC) of the apidaecin-derived peptides and peptide-derivatives were determined by a growth inhibition assay using a serial peptide dilution in sterilized round-bottom 96-well plates (polystyrene, U-bottom, Greiner Bio-One GmbH) with a final volume of 100 μL per well. The bacteria, e.g., E. coli BL21 A1, were grown in nutrient broth (NB, Carl Roth GmbH+Co. KG, Karlsruhe, Germany) at 37° C. over night. To each well of the 96-well plate, 50 μL of the overnight culture adjusted to 5×10^6 CFU/mL in 1% TSB were added. Lyophilized peptides and peptidomimetics were dissolved in 1% TSB (tryptic soy broth) or water to give a final concentration of 250 μg/mL. Fifty μL of the peptide or peptidomimetics solution were added to the first well of a row on the plate and mixed. Fifty μL of the first well containing the peptide solution were transferred to the second well, mixed and again 50 μL transferred to the next well and so on. Thereby, a two-fold dilution series was obtained starting at 250 μg/mL in the first well down to 120 ng/mL in the 12th well of a row giving a final peptide or peptidomimetics concentration from 125 μg/mL (well 1) to 60 ng/mL (well 12). Plates were incubated at 37° C. for 20 hrs. The absorbance was measured at 595 nm using a TECAN micro plate spectrophotometer (Tecan, Germany). All peptides and peptidomimetics were measured in triplicates. Sterilized water was used as a negative control.
The bacteria strains were tested: • Eschericha coli 1103, 10233, BL 21 AI, DC 2, • Klebsiella pneumoniae 681, • Micrococcus luteus ATCC 10240, • Mycobacterium vaccae • Bactillus subtillis 347.

[4] = tested on: R. radiobatter ATCC 15955; assay: Growth inhibition assay (MIC); assay type: cell-based, Rhizobium radiobacter; details: ATCC 15955, 20 h
In short: as §2

E. coli DC 2 = assay: Growth inhibition assay (MIC); assay type: cell-based, Escherichia coli; details: 1% TSB, 37° C., 20 hrs
In short: as §1

E. coli BL 21 AI = assay: Growth inhibition assay (MIC); assay type: cell-based, Escherichia coli; details: 1% TSB, 37° C., 20 hrs
In short: as §1

[5] = tested on: K. Pneumonia K6, ATCC 700603; assay: Growth inhibition assay (MIC); assay type: cell-based, Klebsiella pneumoniae; details: multidrug resistant strain; 1% TSB, 37° C., 20 hrs
In short: as §2

K. Pneumonia 123132 = assay: Growth inhibition assay (MIC); assay type: cell-based, Klebsiella pneumoniae; details: 20 h
In short: as §2

GNNRPVYIPQPRPPHPRL [apidaecin]
degradation in mammalian serum [1]: completely degradaded within one hour

CC[C@H](C)[C@H](NC(=O)[C@H](Cc1ccc(O)cc1)NC(=O)[C@@H](NC(=O)[C@@H]1CCCN1C(=O)[C@H](CCCNC(=N)N)NC(=O)[C@H](CC(N)=O)NC(=O)[C@H](CC(N)=O)NC(=O)[C@H](CCCN)N=C(N(C)C)N(C)C)C(C)C)C(=O)N1CCC[C@H]1C(=O)N[C@@H](CCCNC(=N)N)C(=O)N1CCC[C@H]1C(=O)N[C@@H](CCCNC(=N)N)C(=O)N1CCC[C@H]1C(=O)N1CCC[C@H]1C(=O)N[C@@H](Cc1c[nH]cn1)C(=O)N1CCC[C@H]1C(=O)N[C@@H](CCCNC(=N)N)C(=O)N[C@@H](CC(C)C)C(=O)O [compound 137] ({Orn(α-tetramethylguanidino)}-NNRPVYIPRPRPPHPRL-OH; N-terminus and C-terminus assumed)
MIC B. subtilis 347 (B. subtilis 347; 347, 20 h): 64 µg/mL (≈ 27.9 µM) | induction of resistance (E. coli BL21 AI; 10 passages): no induction of resistance was observed at all | MIC E. coli 1103 (E. coli 1103; 1103, 20 h): 8 µg/mL (≈ 3.49 µM) | MIC S. typhi S5 (S. typhi S5): <1 µg/mL | MIC E. coli D31 (E. coli D31): <1 µg/mL | MIC S. enterica subsp. Enterica serovar. typhi G10215 ATCC 700408 [2]: <1 µg/mL | MIC K. pneumonia 681 (K. pneumonia 681; 20 h): 2 µg/mL (≈ 0.873 µM) | MIC M. luteus ATCC 10240 (M. luteus ATCC 10240; ATCC 10240, 20 h): 8 µg/mL (≈ 3.49 µM)

H-GNNRPVYIPQPRPPHPRL-OH [SEQ ID No. 2, GNNRPVYIPQPRPPHPRL-OH, reference compound]
passage after which first resistance strains were obtained (E. coli BL21 AI; 10 passages): 2nd | MIC-value in the 10th passage (E. coli BL21 AI; 10th passage): 128 µg/mL

CC[C@H](C)[C@H](NC(=O)[C@H](Cc1ccc(O)cc1)NC(=O)[C@@H](NC(=O)[C@@H]1CCCN1C(=O)[C@H](CCCNC(=N)N)NC(=O)[C@H](CC(N)=O)NC(=O)[C@H](CC(N)=O)NC(=O)[C@H](CCCN)N=C(N(C)C)N(C)C)C(C)C)C(=O)N1CCC[C@H]1C(=O)N[C@@H](CCCNC(=N)N)C(=O)N1CCC[C@H]1C(=O)N[C@@H](CCCNC(=N)N)C(=O)N1CCC[C@H]1C(=O)N1CCC[C@H]1C(=O)N[C@@H](Cc1c[nH]cn1)C(=O)N1CCC[C@H]1C(=O)N[C@@H](CCCNC(=N)N)C(=O)N[C@@H](CC(C)C)C(N)=O [compound 88] ({Orn(α-tetramethylguanidino)}-NNRPVYIPRPRPPHPRL-NH2; N-terminus and C-terminus assumed)
MIC B. subtilis 347 (B. subtilis 347; 347, 20 h): 62.5 µg/mL (≈ 27.3 µM) | induction of resistance (E. coli BL21 AI; 10 passages): no induction of resistance was observed at all | MIC E. coli 10233 (E. coli 10233; 10233, 20 h): 1.95 µg/mL (≈ 0.851 µM) | MIC S. typhi S5 (S. typhi S5): 0.125 µg/mL (≈ 0.0546 µM) | MIC E. coli D31 (E. coli D31): 0.5 µg/mL (≈ 0.218 µM) | half-life (in vitro): 15 min | MIC S. enterica subsp. Enterica serovar. typhi G10215 ATCC 700408 [2]: 0.125 µg/mL (≈ 0.0546 µM) | MIC K. pneumonia 681 (K. pneumonia 681; 20 h): 7.81 µg/mL (≈ 3.41 µM) | MIC M. luteus ATCC 10240 (M. luteus ATCC 10240; ATCC 10240, 20 h): 1.95 µg/mL (≈ 0.851 µM)

160 (Dy675-[Orn]NNRPVYIPRPRPPHPRL-NH2) [compound 160]
in vivo biodistribution (fluorescence imaging) [3]: enriched in brain, liver, and both kidneys

CC[C@H](C)[C@H](NC(=O)[C@H](Cc1ccc(O)cc1)NC(=O)[C@@H](NC(=O)[C@@H]1CCCN1C(=O)[C@H](CCCNC(=N)N)NC(=O)[C@H](CC(N)=O)NC(=O)[C@H](CC(N)=O)NC(=O)CN)C(C)C)C(=O)N1CCC[C@H]1C(=O)N[C@@H](CCCN)C(=O)N1C[C@H](O)C[C@H]1C(=O)N[C@@H](CCCNC(=N)N)C(=O)N1CCC[C@H]1C(=O)N1CCC[C@H]1C(=O)N[C@@H](Cc1c[nH]cn1)C(=O)N1CCC[C@H]1C(=O)N[C@@H](CCCNC(=N)N)C(=O)N[C@@H](CC(C)C)C(N)=O [compound 11] (H-GNNRPVYIP[Orn][Hyp]RPPHPRL-NH2)
MIC B. subtilis 347 (B. subtilis 347; 1% TSB, 37° C., 20 hrs): 125 µg/mL (≈ 59.3 µM) | MIC E. coli 45849 (E. coli 45849): 1 µg/mL (≈ 0.474 µM) | MIC E. coli 10233 (E. coli 10233; 1% TSB, 37° C., 20 hrs): 3.91 µg/mL (≈ 1.85 µM) | MIC E. coli 1103 (E. coli 1103; 1% TSB, 37° C., 20 hrs): 3.9 µg/mL (≈ 1.85 µM) | MIC Mycobacterium vaccae (Mycobacterium vaccae): 125 µg/mL (≈ 59.3 µM) | MIC S. typhi S5 (S. typhi S5): <0.5 µg/mL | MIC E. coli D31 (E. coli D31): 8 µg/mL (≈ 3.79 µM) | MIC R. radiobatter ATCC 15955 [4]: <0.16 µg/mL | MIC S. enterica subsp. Enterica serovar. typhi G10215 ATCC 700408 [2]: <0.25 µg/mL | MIC E. coli DC 2 (E. coli DC 2): 0.98 µg/mL (≈ 0.465 µM) | MIC E. coli BL 21 AI (E. coli BL 21 AI): 0.49 µg/mL (≈ 0.232 µM) | MIC K. pneumonia 681 (K. pneumonia 681; 1% TSB, 37° C., 20 hrs): 1.95 µg/mL (≈ 0.924 µM) | MIC M. luteus ATCC 10240 (M. luteus ATCC 10240; 1% TSB, 37° C., 20 hrs): 1.95 µg/mL (≈ 0.924 µM) | MIC K. Pneumonia K6, ATCC 700603 [5]: 8 µg/mL (≈ 3.79 µM) | MIC K. Pneumonia 123132 (K. Pneumonia 123132): 8 µg/mL (≈ 3.79 µM)
